Measured values published in US5858980A, “Peptide fragments of myelin basic protein” (Autoimmune, Inc., priority 1995, dated 1999).

Tests used:
[1] = test system: short term T-cell lines from peripheral blood mononuclear cells; test: T-cell line reactivity to MBP, PLP and MBP peptides (proliferation assay); type: cell-based, human; settings: for mean frequency of T-cell lines reactive to the peptide, MS vs controls (FIG. 1): MS patients compared with combined normal and other neurologic disease controls; for MEAN FREQUENCY Ag REACTIVE LINES: mean +/- SEM
Description: A rapid T-cell cloning technique was used to examine whether there were immunodominant epitopes on human MBP reactive with Class II MHC phenotypes and the frequency of such reactivity. A total of 15,824 short term T-cell lines were generated from 51 human subjects by culturing peripheral blood mononuclear cells ([…]) with purified MBP (100 μg) followed 3 days later, and then every 3-4 days, by the addition of interleukin-2 (IL-2; from ABI, Columbia, Md.) and 2 units recombinant interleukin-4 (IL-4; Genzyme, Boston, Mass.). On Day 13 of culture, an aliquot from each line was tested for reactivity to MBP using the following proliferation assay: T-cell clones (1×10^5 cells/well) were plated in triplicate and cocultured with appropriate stimuli (i.e. 100 μg whole MBP or 5% IL-2) for 72 hours at 37° C., 90% humidity, 5% CO2, in 96 well flat bottomed microtiter plates (Costar). The cells were pulsed with 2 μCi [^3 H]TdR (2 Ci/mmole, New England Nuclear, Boston, Mass.) for the last 18 hours of culture. APCs were prepared by pulsing human Epstein-Barrvirus transformed human B-cells (the virus being commercially available from ATCC) or L-cells which are mouse cells transfected with human DR2 (L-cells are commercially available from ATCC under accession No. ATCC-CCL1 and can be transfected according to the method of Wilkinson, D. et al, J. Exp. Med., 1988, 167:1442-1458 using DNA encoding DR2 as per Wu, S. et al J. Immunol., 1987, 138:2953). B-cells or L-cells were used at 1×10^6 cells/well in complete media either in the presence or absence of 40 pM MBP or phospholipid protein (PLP) for 2 hours at 37° C., washing twice with 4° C. Hanks (Whittaker), followed by irradiation with 5000 rad. at 4° C. To stimulate T-cells without accessory APCs, 2 μM of MBP, PLP, or the appropriate fragment was added directly to the cells for the duration of the culture: 48 hours, followed by pulsing […] and then harvesting. Ten thousand APC's were used for 100,000 T-cell clones.
T-cell lines shown to be reactive to MBP or PLP were then tested using the same technique for reactivity to overlapping oligopeptide 20-mers encompassing the human MBP sequence as shown in Table 1 above. MBP and PLP reactivity frequency analysis was performed on patients with definite, relapsing-remitting MS (as diagnosed by Magnetic Resonance Imaging (MRI) and clinical examination), as well as on subjects with other neurologic diseases and on normal subjects (all age- and sex-matched to the MS patients).

actively induced EAE = test: suppression of actively induced EAE (MBP/CFA immunization); type: in vivo, Lewis rats
[2] = other neurological disease (n = 10)

## 143-168: human MBP fragment of amino acids 143-168, second immunodominant domain (RHGSKYLATASTMDHARHGFLPRHRD; UniProt P02686 143-168, looked up, fragment)
[1]
  mean frequency of T-cell lines reactive to the peptide, MS vs controls (FIG. 1): both MS and control subjects showed high frequencies
[1]; cell lines from patients with MS
  MBP-reactive cell lines that reacted with either MBP residues 84-102 or 143-168: 70-80%
[1]; control groups
  MBP-reactive T-cell lines that recognized either the 84-102 or the 143-168 peptide: about 34%
[1]; subject NS-dd, stimulus IL-2
  Peptide Reactivity (Fraction of MBP-Reactive Lines): 1/2
[1]; subject NS-dd, stimulus MBP
  Peptide Reactivity (Fraction of MBP-Reactive Lines): 6/12
[1]; subject NS-jl, stimulus IL-2
  Peptide Reactivity (Fraction of MBP-Reactive Lines): 5/12
[1]; subject NS-kw, stimulus MBP
  Peptide Reactivity (Fraction of MBP-Reactive Lines): 5/8
[1]; subject five, stimulus IL-2
  Peptide Reactivity (Fraction of MBP-Reactive Lines): 5/6
[1]; subject five, stimulus MBP
  Peptide Reactivity (Fraction of MBP-Reactive Lines): 6/7
[1]; subject seven, stimulus IL-2
  Peptide Reactivity (Fraction of MBP-Reactive Lines): 2/3
[1]; subject seven, stimulus MBP
  Peptide Reactivity (Fraction of MBP-Reactive Lines): 5/8
[1]; subject six, stimulus IL-2
  Peptide Reactivity (Fraction of MBP-Reactive Lines): 1/2
[1]; subject three, stimulus IL-2
  Peptide Reactivity (Fraction of MBP-Reactive Lines): 2/2
[1]; subject three, stimulus MBP
  Peptide Reactivity (Fraction of MBP-Reactive Lines): 2/2
[1]; subject two, stimulus IL-2
  Peptide Reactivity (Fraction of MBP-Reactive Lines): 4/4
[1]; subject two, stimulus MBP
  Peptide Reactivity (Fraction of MBP-Reactive Lines): 8/10

## HHPARTAHYGSLPQKSEGRT [61-82, human MBP amino acid residues 61-82]
[1]
  mean frequency of T-cell lines reactive to the peptide, MS vs controls (FIG. 1): Significant but less striking increases

## guinea pig MBP peptide 131-150: control guinea pig MBP peptide (DYKSKGFKGAHDAQGTLSKI; UniProt P25188 131-150, looked up, fragment)
Actively induced EAE; intravenous administration prior to immunization (FIG. 7)
  suppression of EAE via IV tolerization: did not suppress
Actively induced EAE; oral administration prior to immunization (FIG. 7)
  suppression of EAE via oral tolerization: did not suppress

B1: PLP: proteolipid protein, myelin autoantigen (protein, UniProt P60201 2-277, looked up)
Myelin proteolipid protein: GLLECCARCLVGAPFASLVATGLCFFGVALFCGCGHEALTGTEKLIETYFSKNYQDYEYLINVIHAFQYVIYGTASFFFLYGALLLAEGFYTTGAVRQIFGDYKTTICGKGLSATVTGGQKGRGSRGQHQAHSLERVCHCLGKWLGHPDKFVGITYALTVVWLLVFACSAVPVYIYFNTWTTCQSIAFPSKTSASIGSLCADARMYGVLPWNAFPGKVCGSNLLSICKTAEFQMTFHLFIAAFVGAAATLVSLLTFMIAATYNFAVLKLMGRGTKF
[1]; MS patients (n = 23)
  #Ag REACTIVE LINES / TOTAL # LINES: 20/432
[1]; MS patients (n = 23), per-subject reactive/total lines
  MEAN FREQUENCY Ag REACTIVE LINES: 3.34 ± 1.56
[1]; [2]
  #Ag REACTIVE LINES / TOTAL # LINES: 3/384
  MEAN FREQUENCY Ag REACTIVE LINES: 0.9 ± 0.62
